The text below walks through data of ChEMBL document CHEMBL4402510, “Caprazamycins: Promising lead structures acting on a novel antibacterial target MraY” (Eur J Med Chem, 2019).

The test system of assay [1] is Haemophilus influenzae. The experiment in a line: Antibacterial activity against Haemophilus influenzae after 20 hrs by NCCLS-based two-fold broth dilution method. In kind it is functional. On the technique in general: Dilution methods test growth across graded concentrations, often in twofold steps.
Assay [2] deals with Enterococcus faecalis. The assay can be described thus: Antibacterial activity against t Enterococcus faecalis after 20 hrs by NCCLS-based two-fold broth dilution method. In kind it is functional.
For assay [3], the system named is Enterococcus faecalis. The experiment in a line: Antibacterial activity against t Enterococcus faecalis VRE after 20 hrs by NCCLS-based two-fold broth dilution method. In kind it is functional.
For assay [4], the system named is Staphylococcus aureus. The experiment in a line: Antibacterial activity against methicillin resistant Staphylococcus aureus after 20 hrs by NCCLS-based two-fold broth dilution method. In kind it is functional.
Assay [5] deals with Staphylococcus aureus. The experiment in a line: Antibacterial activity against methicillin susceptible Staphylococcus aureus after 20 hrs by NCCLS-based two-fold broth dilution method. In kind it is functional.
Assay [6] deals with Enterococcus faecium. The experiment in a line: Antibacterial activity against t Enterococcus faecium after 20 hrs by NCCLS-based two-fold broth dilution method. In kind it is functional.
The subject of assay [7] is Enterococcus faecium. The assay can be described thus: Antibacterial activity against t Enterococcus faecium VRE after 20 hrs by NCCLS-based two-fold broth dilution method. In kind it is functional.
The subject of assay [8] is Enterococcus faecium. The experiment in a line: Antibacterial activity against Enterococcus faecium ATCC 19434. In kind it is functional.
The subject of assay [9] is Enterococcus faecalis. The assay can be described thus: Antibacterial activity against Enterococcus faecalis ATCC 29212. In kind it is functional.
The test system of assay [10] is Enterococcus faecalis. The experiment in a line: Antibacterial activity against Enterococcus faecalis SR7914 (VRE). In kind it is functional.
In assay [11] the test system is Staphylococcus aureus. The experiment in a line: Antibacterial activity against methicillin susceptible Staphylococcus aureus ATCC 29213. In kind it is functional.
Assay [12] concerns Staphylococcus aureus. The assay can be described thus: Antibacterial activity against methicillin resistant Staphylococcus aureus SR3637. In kind it is functional.
Assay [13] concerns Enterococcus faecium. The experiment in a line: Antibacterial activity against Enterococcus faecium SR7917 (VRE). In kind it is functional.
In assay [14] the test system is Mycolicibacterium smegmatis. The experiment in a line: Antibacterial activity against Mycobacterium smegmatis. In kind it is functional.
Assay [15] deals with Mycobacterium tuberculosis. The experiment in a line: Antibacterial activity against Mycobacterium tuberculosis. In kind it is functional.
For the next assay, the system named is Mycobacterium avium. The assay can be described thus: Antibacterial activity against Mycobacterium avium. In kind it is functional.
Assay [16] has as its system Mycobacterium intracellulare. The assay can be described thus: Antibacterial activity against Mycobacterium intracellulare. In kind it is functional.
For assay [17], the system named is Escherichia coli. The assay can be described thus: Antibacterial activity against Escherichia coli after 20 hrs by NCCLS-based two-fold broth dilution method. In kind it is functional.
Assay [18] has as its system Haemophilus influenzae. The experiment in a line: Antibacterial activity against Haemophilus influenzae ATCC 10211. In kind it is functional.
Assay [19] addresses T1, Phospho-N-acetylmuramoyl-pentapeptide-transferase (Staphylococcus aureus, UniProt P0C1R8).
T1 sequence (P0C1R8 whole entry): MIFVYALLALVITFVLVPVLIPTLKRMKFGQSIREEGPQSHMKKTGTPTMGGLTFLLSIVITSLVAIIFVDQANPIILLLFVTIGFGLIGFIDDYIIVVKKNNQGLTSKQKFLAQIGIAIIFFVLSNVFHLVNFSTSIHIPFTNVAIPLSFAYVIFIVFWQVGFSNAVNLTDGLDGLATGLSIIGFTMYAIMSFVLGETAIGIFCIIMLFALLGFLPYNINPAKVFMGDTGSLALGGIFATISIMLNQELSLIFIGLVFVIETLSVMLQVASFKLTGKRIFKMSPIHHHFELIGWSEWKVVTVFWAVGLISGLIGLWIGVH
The experiment in a line: Inhibition of MraY in Staphylococcus aureus.

A further assay relates to Streptococcus pneumoniae. The assay can be described thus: Antibacterial activity against Streptococcus pneumoniae. In kind it is functional.
For assay [20], the system named is Escherichia coli. The assay can be described thus: Antibacterial activity against Escherichia coli ATCC 25922. In kind it is functional.
The test system of another assay is Acinetobacter baumannii. The assay can be described thus: Antibacterial activity against Acinetobacter baumannii ATCC 19606. In kind it is functional. As to conditions: ATCC 19606 = CIP 70.34 = JCM 6841.
Assay [21] deals with Pseudomonas aeruginosa. The assay can be described thus: Antibacterial activity against Pseudomonas aeruginosa PAO1 deltamexB. In kind it is functional.
The subject of assay [22] is Pseudomonas aeruginosa. The assay can be described thus: Antibacterial activity against Pseudomonas aeruginosa YY165. In kind it is functional.
Assay [23] relates to Pseudomonas aeruginosa. The experiment in a line: Antibacterial activity against Pseudomonas aeruginosa after 20 hrs by NCCLS-based two-fold broth dilution method. In kind it is functional.

Values after ≈ are worked out from the molar mass of the structure shown.

Take `CCCCCCCCCCCCCCCC(=O)OC[C@@H]1[C@H](C(N)=O)[C@H]([C@H]2O[C@@H](n3ccc(=O)[nH]c3=O)[C@H](O)[C@@H]2O)ON1CCCN`: the MIC is 0.25 to 0.5 µg/mL (≈ 0.382 to 0.765 µM) against Haemophilus influenzae [1], 16 µg/mL (≈ 24.5 µM) with Enterococcus faecalis [2] (read-out: MIC) and 4 to 8 µg/mL (≈ 6.12 to 12.2 µM) in the assay with Enterococcus faecalis [3] (read-out: MIC).
Take `CCCCCCCCCCCCCCCCC[C@@H]1CN[C@@H]([C@H](O[C@@H]2O[C@H](CN)[C@@H](O)[C@H]2O)[C@H]2O[C@@H](n3ccc(=O)[nH]c3=O)[C@H](O)[C@@H]2O)C(=O)N(C)[C@@H]1C(=O)O`: the MIC in the assay on Enterococcus faecalis [2] (read-out: MIC) is 4 µg/mL (≈ 5.1 µM); in the assay with Enterococcus faecalis [3] (read-out: MIC), 8 µg/mL (≈ 10.2 µM); in the assay with Staphylococcus aureus [4] (read-out: MIC), 4 µg/mL (≈ 5.1 µM); in the assay on Staphylococcus aureus [5] (read-out: MIC) it was 4 µg/mL (≈ 5.1 µM); against Enterococcus faecium [6] it was 8 µg/mL (≈ 10.2 µM); in the assay with Enterococcus faecium [7] (read-out: MIC), 8 µg/mL (≈ 10.2 µM). In addition, the MIC was found to be 8 µg/mL (≈ 10.2 µM) in the assay on Enterococcus faecium [8]; 8 µg/mL (≈ 10.2 µM) in the assay on Enterococcus faecalis [9]; 16 µg/mL (≈ 20.4 µM) in the assay on Enterococcus faecalis [10]; 8 µg/mL (≈ 10.2 µM) in the assay with Staphylococcus aureus [11]; 8 µg/mL (≈ 10.2 µM) against Staphylococcus aureus [12]; 16 µg/mL (≈ 20.4 µM) in the assay on Enterococcus faecium [13].
Regarding `CCCCCCCCCCC[C@@H](CC(=O)O[C@H]1CN(C)[C@@H]([C@H](O[C@@H]2O[C@H](CN)[C@@H](O)[C@H]2O)[C@H]2O[C@@H](n3ccc(=O)[nH]c3=O)[C@H](O)[C@@H]2O)C(=O)N(C)[C@@H]1C(=O)O)OC(=O)C[C@H](C)CC(=O)O[C@@H]1O[C@@H](C)[C@H](OC)[C@@H](OC)[C@H]1OC`, the MIC in assay [14] was 0.39 to 1.56 µg/mL (≈ 0.349 to 1.4 µM); in assay [15], 0.78 µg/mL (≈ 0.698 µM); against Mycobacterium avium it was less than 0.025 µg/mL; in assay [16] it was 0.78 µg/mL (≈ 0.698 µM).
For orientation: IC50 means the concentration that inhibits the measured activity by half. A high value points to weaker potency. In the case of `CCCCCCCCCCCCCCCC(=O)N[C@@H]1CCN[C@@H]([C@@H](O[C@@H]2O[C@H](CN)[C@@H](O)[C@H]2O)[C@H]2O[C@@H](n3ccc(=O)[nH]c3=O)[C@H](O)[C@@H]2O)C1`, the MIC turned out to be 32 µg/mL (≈ 45 µM) in the assay on Enterococcus faecalis [2] (read-out: MIC); 32 µg/mL (≈ 45 µM) in the assay on Enterococcus faecalis [3] (read-out: MIC); 32 µg/mL (≈ 45 µM) in the assay on Staphylococcus aureus [4] (read-out: MIC); 16 µg/mL (≈ 22.5 µM) in the assay on Staphylococcus aureus [5] (read-out: MIC); 32 µg/mL (≈ 45 µM) in the assay on Enterococcus faecium [6]; 16 µg/mL (≈ 22.5 µM) with Enterococcus faecium [7] (read-out: MIC). Further, the MIC is 32 µg/mL (≈ 45 µM) with Escherichia coli [17]; 32 µg/mL (≈ 45 µM) against Enterococcus faecium [8]; more than 64 µg/mL in the assay on Haemophilus influenzae [18]; 32 µg/mL (≈ 45 µM) against Enterococcus faecalis [9]; 32 µg/mL (≈ 45 µM) with Enterococcus faecalis [10]; 16 µg/mL (≈ 22.5 µM) with Staphylococcus aureus [11]. The MIC is 32 µg/mL (≈ 45 µM) against Staphylococcus aureus [12]; 16 µg/mL (≈ 22.5 µM) against Enterococcus faecium [13]; 64 µg/mL (≈ 89.9 µM) against Streptococcus pneumoniae; 32 µg/mL (≈ 45 µM) against Escherichia coli [20]; more than 64 µg/mL in the assay with Acinetobacter baumannii; more than 64 µg/mL in the assay on Pseudomonas aeruginosa [21]. In the assay with Pseudomonas aeruginosa [22], this compound gave an MIC of more than 64 µg/mL. The compound also had an IC50 in assay [19] of more than 2700 µM.
In the case of `CCCCCCCCCCCCCCCC(=O)N[C@H]1CCN[C@H]([C@H](O[C@@H]2O[C@H](CN)[C@@H](O)[C@H]2O)[C@H]2O[C@@H](n3ccc(=O)[nH]c3=O)[C@H](O)[C@@H]2O)C1`, the MIC against Haemophilus influenzae [1] stood at 32 µg/mL (≈ 45 µM); in the assay on Enterococcus faecalis [2] (read-out: MIC), 8 µg/mL (≈ 11.2 µM); with Enterococcus faecalis [3] (read-out: MIC), 8 µg/mL (≈ 11.2 µM); with Staphylococcus aureus [4] (read-out: MIC), 8 µg/mL (≈ 11.2 µM); in the assay on Staphylococcus aureus [5] (read-out: MIC) it was 8 µg/mL (≈ 11.2 µM); with Enterococcus faecium [6], 8 µg/mL (≈ 11.2 µM). Further, the MIC in the assay with Enterococcus faecium [7] (read-out: MIC) is 4 µg/mL (≈ 5.62 µM); in the assay on Escherichia coli [17], 16 µg/mL (≈ 22.5 µM); with Pseudomonas aeruginosa [23] it was 32 µg/mL (≈ 45 µM); in the assay with Enterococcus faecium [8] it was 8 µg/mL (≈ 11.2 µM); against Haemophilus influenzae [18], 32 µg/mL (≈ 45 µM); with Enterococcus faecalis [9], 8 µg/mL (≈ 11.2 µM). The MIC in the assay with Enterococcus faecalis [10] is 8 µg/mL (≈ 11.2 µM); against Staphylococcus aureus [11] it was 8 µg/mL (≈ 11.2 µM); with Staphylococcus aureus [12], 8 µg/mL (≈ 11.2 µM); against Enterococcus faecium [13], 4 µg/mL (≈ 5.62 µM); with Streptococcus pneumoniae, more than 64 µg/mL; against Escherichia coli [20], 16 µg/mL (≈ 22.5 µM). The MIC in the assay on Acinetobacter baumannii was more than 64 µg/mL; with Pseudomonas aeruginosa [21], more than 64 µg/mL; against Pseudomonas aeruginosa [22], 32 µg/mL (≈ 45 µM).
As for `CCCCCCCCCCCCCCCC(=O)NC[C@@H]1C[C@H]2[C@@H](C(=O)N1CCCNC(=N)N)[C@H]([C@H]1O[C@@H](n3ccc(=O)[nH]c3=O)[C@H](O)[C@@H]1O)ON2CCCN`, the MIC in the assay with Enterococcus faecalis [2] came to 16 µg/mL (≈ 20.6 µM); in the assay on Enterococcus faecalis [3], 16 µg/mL (≈ 20.6 µM); against Staphylococcus aureus [4] it was 8 µg/mL (≈ 10.3 µM); in the assay with Staphylococcus aureus [5], 8 µg/mL (≈ 10.3 µM); against Enterococcus faecium [7], 8 µg/mL (≈ 10.3 µM); against Enterococcus faecalis [9], 16 µg/mL (≈ 20.6 µM). The MIC came out at 16 µg/mL (≈ 20.6 µM) against Enterococcus faecalis [10], 8 µg/mL (≈ 10.3 µM) in the assay on Staphylococcus aureus [11], 8 µg/mL (≈ 10.3 µM) against Staphylococcus aureus [12] and 8 µg/mL (≈ 10.3 µM) with Enterococcus faecium [13].
